Paper PMC8165160, “Substrate Specificities and Inhibition Pattern of the Solute Carrier Family 10 Members NTCP, ASBT and SOAT” (Frontiers in Molecular Biosciences, 2021)
Counter-ions that a name gives are not always drawn.

What was measured:
[1] = biological target: T1, NTCP (Homo sapiens, UniProt Q14973); assay: Substrate screening: sodium-dependent uptake of radiolabeled compounds in NTCP-HEK293 cells; format: cell-based; design: The full-length open reading frames of NTCP, ASBT, and SOAT were cloned; expressed in transfected cells; host or cells: Flp-In T-REX HEK293 (NTCP-HEK293), tetracycline-induced; settings: NTCP-HEK293, vs sodium-free control
T1 sequence (Q14973 1-349): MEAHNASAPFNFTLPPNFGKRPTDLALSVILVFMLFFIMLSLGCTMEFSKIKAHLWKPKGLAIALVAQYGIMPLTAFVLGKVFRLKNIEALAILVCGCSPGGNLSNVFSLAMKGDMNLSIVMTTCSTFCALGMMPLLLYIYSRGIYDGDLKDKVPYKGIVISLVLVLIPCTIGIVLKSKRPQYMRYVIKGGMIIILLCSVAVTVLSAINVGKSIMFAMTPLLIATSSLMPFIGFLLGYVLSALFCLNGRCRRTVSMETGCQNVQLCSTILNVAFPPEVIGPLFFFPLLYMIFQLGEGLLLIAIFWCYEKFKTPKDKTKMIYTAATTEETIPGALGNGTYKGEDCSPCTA
Procedure: Stably SLC10 transporter transfected NTCP-HEK293, ASBT-HEK293, SOAT-HEK293 cells and the HEK293-FlpIn maternal cell line were seeded on 24-well plates (if not stated otherwise for individual assays). Well plates were coated with poly-D-lysine prior to seeding of 125,000 cells per well. Cells were grown with 1 ml of standard medium per well with or without tetracycline ([…]) for 72 h to induce carrier expression before respective assays were started. HEK293-FlpIn cells were cultivated with standard medium and served as control.
(§1) Uptake experiments were initiated by replacing the preincubation buffer by 500 μL transport buffer containing the radiolabeled test compound and were performed at 37°C. Transport was terminated by removing the transport buffer and washing five-times with ice-cold PBS. Cell monolayers were lysed in 1 N NaOH with 0.1% SDS and the cell-associated radioactivity was determined by liquid scintillation counting.
FIGURE 1 Comparative substrate screening for bile acids and sulfated steroids in NTCP-, ASBT-, and SOAT-HEK293 cells. Transport assays were performed with the indicated substrates in NTCP-HEK293, ABST-HEK293, SOAT-HEK293, and HEK293-FlpIn cells. Cells were washed and equilibrated with Na^+-containing transport buffer (filled bars) or with Na^+-free transport buffer (open bars) at 37°C. For uptake, cells were incubated with radiolabeled steroid compounds at a final concentration of 200 nM in Na^+-containing or Na^+-free transport buffer for 10 min. Radiolabeled bile acids were used at 1 µM concentrations and transport was analyzed over 30 min. HEK293-FlpIn cells served as additional controls. After the indicated time intervals, cells were washed with ice-cold PBS, lysed and subjected to liquid scintillation counting. […] 3-OH, trihydroxylated BAs; 2-OH, dihydroxylated BAs; 1-OH, monohydroxylated BAs.

[2] = biological target: T1, NTCP; assay: Transport kinetics (concentration-dependent uptake) in NTCP-HEK293 cells; format: cell-based; design: The full-length open reading frames of NTCP, ASBT, and SOAT were cloned; expressed in transfected cells; host or cells: Flp-In T-REX HEK293 (NTCP-HEK293), tetracycline-induced; settings: uptake via NTCP, 1 min, 37°C
Procedure: as §1
FIGURE 2 NTCP, ASBT, and SOAT transport kinetics. Concentration-dependent uptake was analyzed in NTCP-HEK293, ASBT-HEK293, and SOAT-HEK293 cells for the indicated substrates at increasing substrate concentrations. Stably transfected HEK293 cells were pretreated with 1 μg/ml tetracycline to induce carrier expression. HEK293-FlpIn cells were used as control. Uptake was analyzed for 1 min at 37°C. Afterward, the medium was removed and each cell monolayer was washed and processed to determine the protein content and cell-associated radioactivity. Specific uptake was calculated by subtracting non-specific uptake of the HEK293-FlpIn control cells (open squares) from uptake into carrier-overexpressing HEK293 cells (filled squares) and is shown by broken lines. The values represent means ± SD of duplicate experiments, each with triplicate determinations (n = 6).

[3] = radiolabeled bile acids 1 µM, 30 min

Row | SMILES | Transport activity grading NTCP (mean uptake) [1, 3] | Apparent K m [2] | V max [2] | Transport activity grading NTCP (mean uptake) ([1]; radiolabeled steroid compounds 200 nM, 10 min)
1 | C[C@H](CCC(=O)NCCS(=O)(=O)O)[C@H]1CC[C@H]2[C@@H]3[C@H](O)C[C@@H]4C[C@H](O)CC[C@]4(C)[C@H]3C[C@H](O)[C@]12C [Taurocholic acid] | +++ (“+++” for values above 1000 pmol/mg protein/30 min) | 13.1 ± 0.8 µM | 2395 ± 59 pmol/mg protein/min | –
2 | C[C@H](CCC(=O)NCCS(=O)(=O)O)[C@H]1CC[C@H]2[C@@H]3CC[C@@H]4C[C@H](O)CC[C@]4(C)[C@H]3CC[C@]12C [Taurolithocholic acid] | +++ (“+++” for values above 1000 pmol/mg protein/30 min) | 18.4 ± 2.3 µM | 5915 ± 189 pmol/mg protein/min | –
3 | C[C@]12CC[C@H](OS(=O)(=O)O)CC1=CC[C@@H]1[C@@H]2CC[C@]2(C)C(=O)CC[C@@H]12 [DHEAS, Dehydroepiandrosterone sulfate] | – | 56.1 ± 8.0 µM | 2198 ± 101.7 pmol/mg protein/min | + (Mean uptake “+” for values below 10)
